Assay results: US7927785B2, “Methods for in vitro expansion of hematopoietic stem cells” (The Board of Trustees of the University of Illinois, priority 2002, dated 2011)

Tests used:
Assay type in all cases: cell-based
[1] = test system: adult human bone marrow CD34+ cells; experiment: Colony-forming cell (CFC) assay in methylcellulose; settings: for Total Number Colonies/plate / BFU-E / CFU-GM / CFU-Mix: cells after 9 days with cytokines, mean of 2 ± SEM; for BFU-E / CFU-GM / CFU-Mix: colonies/plate; for BFU (BFU-E colonies) / GM (CFU-GM colonies) / Mix (CFU-Mix colonies) / Total (colonies): mean of 3 experiments, 1000 unfractionated cells/plate after 9 days of culture, day 14; for Clonogenic potential: total colonies/number of cells plated×100; for Plating Efficiencies: total number of hematopoietic colonies/total cells plated × 100
Experimental: Colony-forming cells (CFC) were assayed under standard conditions in semisolid media as previously described (Brandt et al., Blood 94:106-113, 1999). Briefly 1×10^3 primary CD34^+ cells or unfractionated cultured cells exposed to different conditions used following 9 days of culture were plated in duplicate cultures containing 1 ml IMDM with 1.1% methylcellulose, 30% FBS, 5×10^−5 M 2-mercaptoethanol (Methocult, Stem Cell Technologies, Vancouver, BC, Canada), and a cocktail of growth factors including 100 ng/ml of SCF, 5 U/mL of EPO, 50 ng/mL of IL-3, 50 ng/mL of IL-6 and 50 ng/mL of G-CSF (Amgen Inc., Thousand Oaks, Calif.). The cells were plated into 35 mm tissue-culture dishes (Costar), and after 14 days of incubation at 37° C. in a 100%-humidified atmosphere containing 5% CO2, the colonies were scored with an inverted microscope following standard criteria (Breems et al., Leukemia, 8:1095-1104, 1994).

[2] = test system: adult human bone marrow CD34+ cells; experiment: Ex vivo expansion culture: cell counts and CD34+CD90+ cell numbers; settings: for Fold changes from the original cells: CD34+CD90+ cells; for Total counts ×10^5: start 1×10^5 CD34+ cells/well; for expansion of CD34+CD90+ cells / Absolute CD34+ Number (×10^4) / Absolute CD34+CD90+ Numbers (×10^4) / Total Mononuclear Cell Number (×10^4): 9 days with cytokines; for Absolute CD34+ Number (×10^4) / Absolute CD34+CD90+ Numbers (×10^4) / Total Mononuclear Cell Number (×10^4) / Fold Expansion of CD34+CD90+: mean of 3 ± SEM; for Fold Expansion of CD34+CD90+: compared to the primary cell numbers
Experimental: To promote cell division of isolated CD34^+ cells, a stroma-free suspension culture was established as previously described (Bazil et al., 1995). Tissue culture dishes (35 mm; Costar, Corning, N.Y.) were seeded with 1×10^5 CD34^+cells/well in 2.5 mL Iscove modified Dulbecco medium (IMDM) (Biowhittaker, Walkersville, Md.) containing 30% FBS and a cocktail of cytokines specifically thought to promote exit from G0/G1 in primitive HSC populations which consisted of 100 ng/mL recombinant stem cell factor (SCF), 100 ng/mL FLT-3 ligand, 100 ng/mL thrombopoetin (TPO) and 50 ng/mL of interleukin (IL)-3, (all from Amgen Inc., Thousand Oaks, Calif.).
Cells were maintained in the media and incubated at 37° C. in a 100%-humidified atmosphere containing 5% CO2 for 48 hours. After intial 16 hours of incubation cells were exposed to the demethylating agent, 5-aza2′deoxycitidine (5azaD) (Sigma Chemicals, St. Louis, Mo.) at a concentration of 10^−6M. After 48 hours, cells were washed by centrifugation and then equally distributed to new tissue culture dishes in 2.5 mL IMDM supplemented with 30% FBS containing cytokines known to promote terminal differentiation of HSC into multiple hematopoietic lineages. The cocktail of cytokines contained 100 ng/mL of SCF, 50 ng/ml of granulocyte colony-stimulating factor (G-CSF), 50 ng/mL of IL-3, 50 ng/ml of IL-6 and 5 units (U)/mL of recombinant erythropoietin (EPO) (Amgen Inc., Thousand Oaks, Calif.). Cells at this time point were exposed to Trichostatin (TSA) (Sigma Chemical., St. Louis, Mo.) at 5 ng/mL and the culture was continued for an additional 7 days. At the end of the culture period cells were counted for viability by the trypan blue exclusion method using an inverted microscope. 5-fluorouracil (5-FU) (Sigma Chemical., St. Louis, Mo.) was used at a concentration of 200 μg/ml and added at the 16 hour time point instead of 5azaD and the cultures carried on as described above with no addition of TSA.
The phenotypic characteristics of the CD34^+ cells were analyzed using FACS. After 9 days of culture, expanded marrow CD34^+ cells were analyzed for primitive HSC phenotype, previously defined, by using flow activated-cell sorter (FACS) (Becton Dickinson (BD) FACS Calibur, San Jose, Calif.). Cells were stained with anti-human CD34^+ moAb conjugated either to fluorescein isothiocyanate (FITC) or phycoerythrin (PE) and another moAb including anti-CD38, anti-CD117, anti-CD90. To determine the lineage positive cells a panel of moab all conjugated to FITC (anti-CD2, anti-CD14, anti-CD15, anti-CD19 and anti-GlyA) (all antibodies were purchased from BD) were utilized. All anaylsis were paired with the corresponding matched isotype control of the specific moAb utilized. All staining and washes were performed in DPBS (Biowhittaker, Walkersville Md.) and 0.5% BSA (Sigma, Chemicals Co., St. Louis, Mo.). Immediately prior to FACS anaylsis, […] propidium iodide (PI) (Sigma, Chemicals Co., St. Louis, Mo.) was added for the exclusion of nonviable cells for phenotypic analysis. Using Cell-Quest software (BD), at least 10,000 live cells were acquired for each analysis.

[3] = test system: adult human bone marrow CD34+ cells; experiment: Cell cycle analysis by FACS (SG2M %); settings: for SG2M % 48 hours: 48 hours from the start of the experiment; for SG2M % 72 hours: 72 hours from the start of the experiment
Experimental: Table 4. TSA Increases the Number of Cycling Cells. Cell cycle analysis at 48 h and 72 h from the start of the experiment is shown. Cells were examined by FACS analysis for cell cycle. SG2M % indicates cells in active DNA synthesis and indicates cells that may be actively cycling. This increased cycling allows the incorporation of the hypomethylating agent 5azaD.

[4] = 9 days of culture, single agent

SMILES	Total Number Colonies/plate [1]	BFU-E [1]	CFU-GM [1]	CFU-Mix [1]	BFU (BFU-E colonies) [1]	GM (CFU-GM colonies) [1]	Mix (CFU-Mix colonies) [1]	Total (colonies) [1]	Clonogenic potential [1] [%]	Plating Efficiencies [1]	% CD34+ of all cells [2, 4] [%]	Absolute CD34+ thy-1+ cells ×10^5 [2, 4]	Absolute CD34 counts ×10^5 [2, 4]	Fold changes from the original cells [2, 4] [fold]	Total counts ×10^5 [2, 4]	expansion of CD34+CD90+ cells [2]	Absolute CD34+ Number (×10^4) [2]	Absolute CD34+CD90+ Numbers (×10^4) [2]	Total Mononuclear Cell Number (×10^4) [2]	Fold Expansion of CD34+CD90+ [2] [fold]	other results
Nc1ncn([C@H]2C[C@H](O)[C@@H](CO)O2)c(=O)n1 [5azaD, 5-aza2′deoxycitidine]	97.8 ± 11.1	4 ± 1.5	73.0 ± 0.25	20.8 ± 9.3	5	52	27	84	8.4	9.8 ± 1.1	26	0.15 ×10^5	0.65 ×10^5	0.7	2.5 ×10^5	more limited expansion	10.0 ± 4.0 ×10^4	4.0 ± 1.7 ×10^4	32.0 ± 5.0 ×10^4	1.7 ± 0.8	% CD34+ thy-1+ cells [2, 4]: 6%; SG2M % 48 hours [3]: 36.5%; SG2M % 72 hours [3]: 35.5%
CC(/C=C/C(=O)NO)=C\[C@@H](C)C(=O)c1ccc(N(C)C)cc1 [TSA, Trichostatin A]	14.3 ± 8.1	0.0	13 ± 6.6	1.3 ± 0.8	0	3	0	3	0.3	1.4 ± 0.8	3.9	0.31 ×10^5	1.7 ×10^5	1.4	46 ×10^5	more limited expansion	19.0 ± 1.0 ×10^4	4.0 ± 1.0 ×10^4	470.0 ± 87.0 ×10^4	1.8 ± 0.4	SG2M % 48 hours [3]: 36%; SG2M % 72 hours [3]: 41.6%
